Mutagenic call data for five compounds are collected here from PubChem BioAssay AID1259407 (Chemical Carcinogenesis Research Information System (CCRIS), 2018).

The source made the active and inactive calls. The rule behind the calls is not given here.

For the data set, the system named is CCRIS mutagenicity, Ames/micronucleus/aberration tests. Description: CCRIS mutagenicity studies.
Setting [1] is: Test System: AMES SALMONELLA TYPHIMURIUM, Strain/Indicator: TA98, Metabolic Activation: NONE, Method: STANDARD PLATE.
Where [2] appears, read: Test System: AMES SALMONELLA TYPHIMURIUM, Strain/Indicator: TA98, Metabolic Activation: RAT, LIVER, S-9, AROCLOR 1254, Method: STANDARD PLATE.
[3] abbreviates: Test System: AMES SALMONELLA TYPHIMURIUM, Strain/Indicator: TA100, Metabolic Activation: NONE, Method: STANDARD PLATE.
Setting [4] is: Test System: AMES SALMONELLA TYPHIMURIUM, Strain/Indicator: TA100, Metabolic Activation: RAT, LIVER, S-9, AROCLOR 1254, Method: STANDARD PLATE.
Where [5] appears, read: Test System: AMES SALMONELLA TYPHIMURIUM, Strain/Indicator: TA1535, Metabolic Activation: NONE, Method: STANDARD PLATE.
Setting [6] is: Test System: AMES SALMONELLA TYPHIMURIUM, Strain/Indicator: TA1535, Metabolic Activation: RAT, LIVER, S-9, AROCLOR 1254, Method: STANDARD PLATE.
Where [7] appears, read: Test System: AMES SALMONELLA TYPHIMURIUM, Strain/Indicator: TA1537, Metabolic Activation: NONE, Method: STANDARD PLATE.
Where [8] appears, read: Test System: AMES SALMONELLA TYPHIMURIUM, Strain/Indicator: TA1537, Metabolic Activation: RAT, LIVER, S-9, AROCLOR 1254, Method: STANDARD PLATE.

`C=CC(=O)OCC`: the mutagenic call by setting is: (End Point: IN VITRO CHROMOSOMAL ABERRATIONS, Test System: CHO-LB CELLS, Metabolic Activation: NONE) “inactive; negative”; (End Point: IN VITRO CHROMOSOMAL ABERRATIONS, Test System: CHO-LB CELLS, Metabolic Activation: RAT, LIVER, S-9, AROCLOR 1254) “active; positive”; (Test System: AMES SALMONELLA TYPHIMURIUM, Strain/Indicator: TA98, Metabolic Activation: HAMSTER, LIVER, S-9, AROCLOR 1254, Method: PREINCUBATION) “inactive; negative”; (Test System: AMES SALMONELLA TYPHIMURIUM, Strain/Indicator: TA98, Metabolic Activation: NONE, Method: PREINCUBATION) “inactive; negative”; under setting [1], “inactive; negative”; (Test System: AMES SALMONELLA TYPHIMURIUM, Strain/Indicator: TA98, Metabolic Activation: RAT, LIVER, S-9, AROCLOR 1254, Method: PREINCUBATION) “inactive; negative”. Further, the mutagenic call runs as follows: under setting [2], “inactive; negative”; (Test System: AMES SALMONELLA TYPHIMURIUM, Strain/Indicator: TA98, Metabolic Activation: RAT, LIVER, S-9, SODIUM PHENOBARBITAL, Method: STANDARD PLATE) “inactive; negative”; (Test System: AMES SALMONELLA TYPHIMURIUM, Strain/Indicator: TA100, Metabolic Activation: HAMSTER, LIVER, S-9, AROCLOR 1254, Method: PREINCUBATION) “inactive; negative”; (Test System: AMES SALMONELLA TYPHIMURIUM, Strain/Indicator: TA100, Metabolic Activation: NONE, Method: PREINCUBATION) “inactive; negative”; under setting [3], “inactive; negative”; (Test System: AMES SALMONELLA TYPHIMURIUM, Strain/Indicator: TA100, Metabolic Activation: RAT, LIVER, S-9, AROCLOR 1254, Method: PREINCUBATION) “inactive; negative”. Further, the mutagenic call was “inactive; negative” under setting [4]; “inactive; negative” (Test System: AMES SALMONELLA TYPHIMURIUM, Strain/Indicator: TA100, Metabolic Activation: RAT, LIVER, S-9, SODIUM PHENOBARBITAL, Method: STANDARD PLATE); “inactive; negative” (Test System: AMES SALMONELLA TYPHIMURIUM, Strain/Indicator: TA1535, Metabolic Activation: HAMSTER, LIVER, S-9, AROCLOR 1254, Method: PREINCUBATION); “inactive; negative” (Test System: AMES SALMONELLA TYPHIMURIUM, Strain/Indicator: TA1535, Metabolic Activation: NONE, Method: PREINCUBATION); “inactive; negative” under setting [5]; “inactive; negative” (Test System: AMES SALMONELLA TYPHIMURIUM, Strain/Indicator: TA1535, Metabolic Activation: RAT, LIVER, S-9, AROCLOR 1254, Method: PREINCUBATION). Besides, the mutagenic call runs as follows: under setting [6], “inactive; negative”; (Test System: AMES SALMONELLA TYPHIMURIUM, Strain/Indicator: TA1535, Metabolic Activation: RAT, LIVER, S-9, SODIUM PHENOBARBITAL, Method: STANDARD PLATE) “inactive; negative”; (Test System: AMES SALMONELLA TYPHIMURIUM, Strain/Indicator: TA1537, Metabolic Activation: HAMSTER, LIVER, S-9, AROCLOR 1254, Method: PREINCUBATION) “inactive; negative”; (Test System: AMES SALMONELLA TYPHIMURIUM, Strain/Indicator: TA1537, Metabolic Activation: NONE, Method: PREINCUBATION) “inactive; negative”; under setting [7], “inactive; negative”; (Test System: AMES SALMONELLA TYPHIMURIUM, Strain/Indicator: TA1537, Metabolic Activation: RAT, LIVER, S-9, AROCLOR 1254, Method: PREINCUBATION) “inactive; negative”. The mutagenic call is “inactive; negative” under setting [8]; “inactive; negative” (Test System: AMES SALMONELLA TYPHIMURIUM, Strain/Indicator: TA1537, Metabolic Activation: RAT, LIVER, S-9, SODIUM PHENOBARBITAL, Method: STANDARD PLATE); “inactive; negative” (Test System: AMES SALMONELLA TYPHIMURIUM, Strain/Indicator: TA1538, Metabolic Activation: NONE, Method: STANDARD PLATE); “inactive; negative” (Test System: AMES SALMONELLA TYPHIMURIUM, Strain/Indicator: TA1538, Metabolic Activation: RAT, LIVER, S-9, AROCLOR 1254, Method: STANDARD PLATE); “inactive; negative” (Test System: AMES SALMONELLA TYPHIMURIUM, Strain/Indicator: TA1538, Metabolic Activation: RAT, LIVER, S-9, SODIUM PHENOBARBITAL, Method: STANDARD PLATE); “inactive; negative” (Test System: Ames Salmonella typhimurium, Strain/Indicator: YG7108pin3ERb5, Metabolic Activation: None, Method: Standard plate). The mutagenic call is “active; positive” (Test System: CHINESE HAMSTER OVARY, Strain/Indicator: CHO-K1-BH4 (HGPRT)/6-THIOGUANINE, Metabolic Activation: NONE, Method: SUSPENSION/PLATE); “active; positive” (Test System: CHINESE HAMSTER OVARY, Strain/Indicator: CHO-K1-BH4 (HGPRT), Metabolic Activation: NONE, Method: MONOLAYER); “active; positive” (Test System: CHINESE HAMSTER OVARY, Strain/Indicator: CHO-K1-BH4 (HGPRT), Metabolic Activation: NONE, Method: SUSPENSION/PLATE); “active; positive. reevaluation of results: positive” (Test System: MOUSE LYMPHOMA, Strain/Indicator: L5178Y (TK+/TK-), Metabolic Activation: RAT, LIVER, S-9, AROCLOR 1254, Method: SUSPENSION/PLATE); “active; positive” (Test System: MOUSE LYMPHOMA, Strain/Indicator: L5178Y (TK+/TK-), Metabolic Activation: RAT, LIVER, S-9, AROCLOR, Method: SUSPENSION/PLATE).

Take `Cc1ccc([N+]#N)cc1`: the mutagenic call was “active; positive” under setting [3]; “active; positive” (Test System: AMES SALMONELLA TYPHIMURIUM, Strain/Indicator: TA102, Metabolic Activation: NONE, Method: STANDARD PLATE); “active; positive” (Test System: CHINESE HAMSTER V-79, Strain/Indicator: V-79/6-THIOGUANINE, Metabolic Activation: NONE).

`COC(=O)Nc1nc2ccc(O)cc2[nH]1`: the mutagenic call is “inactive; negative” under setting [1]; “inactive; negative” under setting [2]; “inactive; negative” under setting [3]; “inactive; negative” under setting [4]; “inactive; negative” under setting [5]; “inactive; negative” under setting [6]. Further, the mutagenic call under setting [7] is “inactive; negative” and the mutagenic call under setting [8] was “inactive; negative”.

Turning to `CC(C)NCC(O)COc1ccc(CC(N)=O)cc1` (configuration not stated), the mutagenic call is “inactive; negative” (Test System: AMES SALMONELLA TYPHIMURIUM, Strain/Indicator: TA98, Metabolic Activation: NONE); “inactive; negative” (Test System: AMES SALMONELLA TYPHIMURIUM, Strain/Indicator: TA98, Metabolic Activation: RAT, LIVER, S-9, AROCLOR 1254); “inactive; negative” (Test System: AMES SALMONELLA TYPHIMURIUM, Strain/Indicator: TA100, Metabolic Activation: NONE); “inactive; negative” (Test System: AMES SALMONELLA TYPHIMURIUM, Strain/Indicator: TA100, Metabolic Activation: RAT, LIVER, S-9, AROCLOR 1254); “inactive; negative” (Test System: AMES SALMONELLA TYPHIMURIUM, Strain/Indicator: TA1535, Metabolic Activation: NONE); “inactive; negative” (Test System: AMES SALMONELLA TYPHIMURIUM, Strain/Indicator: TA1535, Metabolic Activation: RAT, LIVER, S-9, AROCLOR 1254). Moreover, the mutagenic call is “inactive; negative” (Test System: AMES SALMONELLA TYPHIMURIUM, Strain/Indicator: TA1537, Metabolic Activation: NONE); “inactive; negative” (Test System: AMES SALMONELLA TYPHIMURIUM, Strain/Indicator: TA1537, Metabolic Activation: RAT, LIVER, S-9, AROCLOR 1254); “inactive; negative” (Test System: UDS HUMAN HEPATOCYTES, Strain/Indicator: THY INCORP, Metabolic Activation: NONE, Method: AUTORADIOGRAPHY); “inactive; negative” (Test System: UDS RAT HEPATOCYTES, Strain/Indicator: THY INCORP, Metabolic Activation: NONE, Method: AUTORADIOGRAPHY).

Turning to `Oc1cccc2c1-c1cc3cccc4ccc5ccc-2c1c5c43`, the mutagenic call under setting [4] was “active; positive”.
